Results published in patent publication US11185552B2, “Inhibitors of glucose-6-phosphate dehydrogenase for treating cardiovascular and pulmonary conditions” (ICHOR, LLC., priority 2016, dated 2021).

Tests used:
[1] = system: Rat pulmonary artery smooth muscle cells; assay: Cell number/proliferation by Cyquant assay; assay type: cell-based; conditions: 72 hr treatment, versus vehicle control
Procedure: (§1) FIGS. 4A and 4B are graphs showing results for rat pulmonary artery smooth muscle cells that were cultured in 15% DMEM media for 48 hr and cells were treated with newly synthesized G6PD drugs; PD109 (109), PD2124 (2124), PD2958 (2958) and PD4091 (4091) or vehicle control (Con) for 72 hr. Cell number/proliferation (FIG. 4A) and apoptosis (FIG. 4B) was determined by Cyquant and Caspase3/7 assay, respectively. Cell numbers were decreased by G6PD inhibitors (FIG. 4A). Cell apoptosis was increased by PD2958 (1 microM) N=5 in each group (FIG. 4B).
as §1, with “Rat” for “FIGS. 4A and 4B are graphs showing results for rat”, “cells” for “cells that”, “number/proliferation” for “number/proliferation (FIG. 4A)”, “apoptosis” for “apoptosis (FIG. 4B)”, “inhibitors.” for “inhibitors (FIG. 4A).”, “(FIGS. 4A and” for “(FIG.”

[2] = system: Bovine pulmonary artery rings; assay: Relaxation of KCl pre-contracted bovine pulmonary artery rings; conditions: pre-contracted with KCl (30 mM), Krebs buffer
Procedure: FIG. 6 is a graph showing bovine pulmonary artery rings that were incubated in Krebs buffer and pre-contracted with KCl (30 mM). These pre-contracted rings relaxed by G6PD inhibitors; PD109 (109), PD2124 (2124), PD2958 (2958) and PD4091 (4091) or dehydroepiandrosterone (DHEA).
Bovine pulmonary artery rings were incubated in Krebs buffer and pre-contracted with KCl (30 mM). These pre-contracted rings relaxed by G6PD inhibitors; PD109 (109), PD2124 (2124), PD2958 (2958) and PD4091 (4091) or dehydroepiandrosterone (DHEA) (FIG. 6).

[3] = system: Bovine pulmonary arteries; assay: Smooth muscle protein expression in bovine pulmonary arteries incubated in Krebs buffer; conditions: 12 hr
Procedure: FIGS. 3A and 3B are graphs showing results for bovine pulmonary arteries that were incubated in Krebs buffer with and without G6PD inhibitor PD2958 (2958) and PD2124 (2124) for 12 hr. Vascular smooth cell-specific protein myocardin (MYOCD; FIG. 3A) and smooth muscle myosin heavy chain (MHY11; FIG. 3B) expression was increased by PD2958 (10 microM) and PD2124 (1 microM).
Bovine pulmonary arteries were incubated in Krebs buffer with and without G6PD inhibitor PD2958 (2958) and PD2124 (2124) for 12 hr. Vascular smooth cell-specific protein myocardin (MYOCD) and smooth muscle myosin heavy chain (MHY11) expression was increased by PD2958 (10 microM) and PD2124 (1 microM) (FIGS. 3A and 3B).

[4] = system: Rat pulmonary artery smooth muscle cells; assay: Apoptosis by Caspase3/7 assay; assay type: cell-based; conditions: 1 microM, 72 hr, N=5
Procedure: as §1
as §1, with “Rat” for “FIGS. 4A and 4B are graphs showing results for rat”, “cells” for “cells that”, “number/proliferation” for “number/proliferation (FIG. 4A)”, “apoptosis” for “apoptosis (FIG. 4B)”, “inhibitors.” for “inhibitors (FIG. 4A).”, “(FIGS. 4A and” for “(FIG.”

[5] = system: Rat pulmonary artery smooth muscle cells; assay: Cell migration; assay type: cell-based; conditions: 1 microM, 72 hr, N=5
Procedure: (§2) FIGS. 5A and 5B are images (FIG. 5A) and a graph (FIG. 5B) showing rat pulmonary artery smooth muscle cells that were cultured in 15% DMEM media for 48 hr and cells were treated with newly synthesized G6PD drugs; PD2958 (2958) or vehicle control (Con) for 72 hr. Cells migration was determined. Cell migration was abrogated by PD2958 (1 microM). N=5 in each group.
as §2, with “Rat” for “FIGS. 5A and 5B are images (FIG. 5A) and a graph (FIG. 5B) showing rat”, “cells” for “cells that”, “group (FIGS. 5A and 5B).” for “group.”

[6] = system: Aortic rings of wild-type mice; assay: Relaxation of KCl pre-contracted aortic rings, wild-type mice; conditions: KCl (30 mM)
Procedure: (§3) FIG. 7 is a graph showing aortic rings of wild-type and G6PD-deficient pre-contracted with KCl (30 mM).
(§4) Aortic rings of wild-type and G6PD-deficient pre-contracted with KCl (30 mM).

[7] = system: Aortic rings of G6PD-deficient mice; assay: Relaxation of KCl pre-contracted aortic rings, G6PD-deficient mice; conditions: KCl (30 mM)
Procedure: as §3, §4

[8] = biological target: G6PD (Homo sapiens, UniProt P11413); assay: G6PD activity inhibition (enzyme assay)
[9] = system: mice with pulmonary hypertension; assay: Hypoxia (10% O2) pulmonary hypertension in mice; assay type: in vivo; conditions: S.C. 1.3 mg/Kg for 1 wk from wk 4 to wk 5, 10% O2
Procedure: Placebo and 2124 were injected S.C. (1.3 mg/Kg) for 1 wk from wk 4 to wk 5.

Chain of G6PD (P11413 whole entry): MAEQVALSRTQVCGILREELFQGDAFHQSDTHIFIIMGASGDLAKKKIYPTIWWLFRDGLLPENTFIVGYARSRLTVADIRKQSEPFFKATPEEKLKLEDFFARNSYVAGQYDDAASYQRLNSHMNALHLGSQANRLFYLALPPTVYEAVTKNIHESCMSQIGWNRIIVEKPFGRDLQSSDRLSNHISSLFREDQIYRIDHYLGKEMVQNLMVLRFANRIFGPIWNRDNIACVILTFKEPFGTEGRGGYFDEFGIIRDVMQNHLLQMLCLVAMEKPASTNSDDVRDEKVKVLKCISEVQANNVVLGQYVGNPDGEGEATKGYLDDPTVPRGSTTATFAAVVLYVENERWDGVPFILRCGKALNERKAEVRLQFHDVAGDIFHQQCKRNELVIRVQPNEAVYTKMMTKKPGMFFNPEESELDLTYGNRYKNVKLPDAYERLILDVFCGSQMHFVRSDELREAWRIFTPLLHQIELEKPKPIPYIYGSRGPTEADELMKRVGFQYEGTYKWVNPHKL

C[C@]12CC[C@H](O)CC1=CC[C@@H]1[C@@H]2CC[C@]2(C)C(=O)CC[C@@H]12 [PD109, 5-Androsten-3-beta-hydroxy-17-one (Dehydroepiandrosterone), reference compound]
Cell number/proliferation [1]: decreased
relaxation of pre-contracted pulmonary artery rings [2]: relaxed

CCNC(=O)N[C@H]1CC[C@@]2(C)[C@@H](CC[C@@H]3[C@@H]2CC[C@]2(C)C(=O)CC[C@@H]32)C1 [PD2958, N-Ethyl-N′-[(3β,5α)-17-oxoandrostan-3-yl]urea]
myocardin (MYOCD) expression ([3]; 10 microM): increased
smooth muscle myosin heavy chain (MHY11) expression ([3]; 10 microM): increased
Cell number/proliferation [1]: decreased
Cell apoptosis [4]: increased
Cell migration [5]: abrogated
relaxation of pre-contracted pulmonary artery rings [2]: relaxed
relaxation of pre-contracted aortic rings [6]: relaxed in dose-dependent manner
relaxation of pre-contracted aortic rings [7]: not G6PD-deficient mice were relaxed
IC50 [8]: 1 to 10 µM

CC(=O)[C@H]1CC[C@H]2[C@@H]3CC[C@H]4C[C@@H](NS(C)(=O)=O)CC[C@]4(C)[C@H]3CC[C@]12C [PD4091, N-[(3β,5α)-20-Oxopregnan-3-yl]methanesulfonamide]
IC50 [8]: 1 to 10 µM

C[C@]12CC[C@H](O)C[C@@H]1CC[C@@H]1[C@@H]2CC[C@]2(C)[C@@H](C(=O)CO)CC[C@@H]12 [PD2124, (3β,5α)-3,21-Dihydroxypregnan-20-one]
myocardin (MYOCD) expression ([3]; 1 microM): increased
smooth muscle myosin heavy chain (MHY11) expression ([3]; 1 microM): increased
Cell number/proliferation [1]: decreased
relaxation of pre-contracted pulmonary artery rings [2]: relaxed
TPR [9]: reduced and reversed
arterial elastance [9]: reduced and reversed
cardiac index [9]: increased
left ventricle (LV) stiffness [9]: reduced and reversed
pulmonary resistance determined as PAAT-to-ET ratio [9]: reduced and reversed
IC50 [8]: 1 to 10 µM
